Assay results as given in patent US4866046A, “Low-dosage sublingual aspirin” (Top Laboratories, Inc., priority 1988, dated 1989).

Legend:
Cyclooxygenase = Cyclooxygenase inhibition in volunteers after daily aspirin tablets; assay type: in vivo, human
Platelet Aggregation [1] = assay: Platelet aggregation inhibition in volunteers, thrombin as aggregating agent; assay type: in vivo, human; conditions: daily dose, average (range)
Method: Platelet aggregation was measured against thrombin as aggregating agent. Tablets were all similarly made as described in Example 1.

Platelet Aggregation [2] = conditions: dose of 325 mg/day, in some people; cited from earlier work

## CC(=O)Oc1ccccc1C(=O)O [Aspirin, acetylsalicylic acid]
Cyclooxygenase; 10 mg. tablet, swallowed, average (range) of volunteers
  % Inhibition, after 5-7 days, of Cyclooxygenase: 55.6 (11-95) %
Cyclooxygenase; 20 mg. sublingual tablet, average (range)
  % Inhibition, after 5-7 days, of Cyclooxygenase: 83.3 (75-94) %
Cyclooxygenase; 80 mg. sublingual tablet (tablet of Example 1), average (range)
  % Inhibition, after 5-7 days, of Cyclooxygenase: 99.0 (95-100) %
Cyclooxygenase; 80 mg. tablet, swallowed, average (range)
  % Inhibition, after 5-7 days, of Cyclooxygenase: 76.3 (13-100) %
Cyclooxygenase; 325 mg tablet, swallowed, average (range)
  % Inhibition, after 5-7 days, of Cyclooxygenase: 97.7 (25-100) %
Cyclooxygenase; 325 mg. sublingual tablet, average
  % Inhibition, after 5-7 days, of Cyclooxygenase: 100.0%
Platelet Aggregation [1]; 10 mg. tablet, swallowed
  % Inhibition, after 5-7 days, of Platelet Aggregation: 27.5 (0-87) %
Platelet Aggregation [1]; 20 mg. sublingual tablet
  % Inhibition, after 5-7 days, of Platelet Aggregation: 45.3 (35-60) %
Platelet Aggregation [1]; 80 mg. sublingual tablet (tablet of Example 1)
  % Inhibition, after 5-7 days, of Platelet Aggregation: 95.7 (88-100) %
Platelet Aggregation [1]; 80 mg. tablet, swallowed
  % Inhibition, after 5-7 days, of Platelet Aggregation: 44.2 (5-98) %
Platelet Aggregation [1]; 325 mg. sublingual tablet
  % Inhibition, after 5-7 days, of Platelet Aggregation: 78.5 (62-98) %
Platelet Aggregation [1]; Homo sapiens, Platelet, 325 mg tablet, swallowed, read-out: % Inhibition, after 5-7 days, of Platelet Aggregation
  inhibition at 325 mg: 70%
Platelet Aggregation [2]
  inhibit platelet aggregation: 90%
